Several values for one entry are separate records, joined by “and”; a condition that tells them apart may be missing. Identical values can stand only once.
Legend:
[1] = target: T1, CouP (RPA1789) periplasmic binding-protein (Rhodopseudomonas palustris, UniProt Q6N8W4); assay: Intrinsic tryptophan fluorescence spectroscopy / ligand titrations with CouP (RPA1789); details: for Quench of intrinsic tryptophan fluorescence of CouP (RPA1789): 0.2 µM ligand added to 0.2 µM protein (equimolar), excitation 280 nm; for K d with CouP that was not urea treated, relative to refolded protein: fluorescence titrations, CouP not urea treated (endogenous ligand not removed), fold higher
T1 sequence (Q6N8W4 27-385): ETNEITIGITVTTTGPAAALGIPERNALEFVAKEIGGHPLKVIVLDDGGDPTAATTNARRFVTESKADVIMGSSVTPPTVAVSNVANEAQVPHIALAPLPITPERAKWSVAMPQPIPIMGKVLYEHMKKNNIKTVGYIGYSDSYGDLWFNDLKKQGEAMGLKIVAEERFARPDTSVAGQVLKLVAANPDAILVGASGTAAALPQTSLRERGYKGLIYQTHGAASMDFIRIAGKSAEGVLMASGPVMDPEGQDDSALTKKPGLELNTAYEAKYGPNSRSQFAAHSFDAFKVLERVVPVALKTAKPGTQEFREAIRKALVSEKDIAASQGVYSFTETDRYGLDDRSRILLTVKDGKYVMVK
Method: (§1) Pure protein was unfolded by dialysis against 1 L of 6 M urea for 16 hours at 4°C. Refolding was effected by dialysis against 2 L of refolding buffer (50 mM Tris-HCl pH 7.2 plus 100 mM NaCl) for 8 hours, the buffer being changed every 2 hours with a final overnight dialysis. Once removed from the dialysis tubing, protein was centrifuged (13,000×g, 10 mins, 4°C) to remove any precipitated misfolded protein.
(§2) Changes in the UV fluorescence of intrinsic tryptophan residues in RPA1782 and RPA1789 were measured using a Cary Eclipse fluorimeter (Varian Ltd, UK) in 10 mM Tris-HCl buffer pH 7.4 at 30°C in a 3 ml volume. Excitation of samples was at 280 nm (5 nm slit width) and emission was recorded at 300–400 nm (20 nm slit width). Ligand titrations were performed with 0.2 µM protein with λex 280 nm λem 340 nm using 5 nm excitation and 20 nm emission slit widths respectively. Except where indicated, data from three independent titrations was used to calculate K d values, by fitting to the quadratic equation for tight binding as previously described.

[2] = target: T2, TarP (RPA1782) periplasmic binding-protein (Rhodopseudomonas palustris, UniProt Q6N8X0); assay: Intrinsic tryptophan fluorescence spectroscopy / ligand titrations with TarP (RPA1782); details: for Quench of intrinsic tryptophan fluorescence of TarP (RPA1782): equimolar protein and ligand (0.2 µM), excitation 280 nm
T2 sequence (Q6N8X0 20-336): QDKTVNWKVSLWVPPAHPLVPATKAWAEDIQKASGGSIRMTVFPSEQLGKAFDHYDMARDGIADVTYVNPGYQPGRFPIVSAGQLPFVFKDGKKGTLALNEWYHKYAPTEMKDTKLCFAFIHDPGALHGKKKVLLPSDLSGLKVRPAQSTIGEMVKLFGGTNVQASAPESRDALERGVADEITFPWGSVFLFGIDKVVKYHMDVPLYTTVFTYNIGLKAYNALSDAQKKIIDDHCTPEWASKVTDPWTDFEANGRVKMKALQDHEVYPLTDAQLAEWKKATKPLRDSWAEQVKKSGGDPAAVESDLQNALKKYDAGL
Method: as §1, §2

CouP (RPA1789) = target: T3, CouP (RPA1789) (Rhodopseudomonas palustris, UniProt Q6N8W4); assay: Isothermal titration calorimetry (ITC) with RPA1789; type: binding
T3 sequence (Q6N8W4 27-385): T1 sequence (Q6N8W4 27-385)
Method: ITC experiments were carried out using a VP-ITC calorimeter (Microcal, Inc., UK). Ligand stock solutions for ITC experiments were made up in aliquots of the final refolding buffer that RPA1789 was dialysed against (50 mM Tris-HCl pH 7.2 plus 100 mM NaCl) and all reactions used the same buffer. The reaction cell contained 1.8 ml of 50 µM protein in refolding buffer. Ligand titrations were carried out at 20°C (except caffeate which was carried out at 25°C) by the injection of 20×15 µl aliquots of 400 µM ligand, from a 300 µl syringe, for a duration of 35 seconds at 7 minute intervals. After taking into account the baseline and any heats of dilution by the ligand, all titrations were integrated using the ORIGIN software programme associated with the calorimeter then exported to in-house numerical routines for data fitting to the Weissman isotherm.

[3] = target: T1, CouP (RPA1789) periplasmic binding-protein; assay: Intrinsic tryptophan fluorescence spectroscopy / ligand titrations with CouP (RPA1789); details: CouP not urea treated (endogenous ligand not removed)
RPA1789 = target: RPA1789; parameters: method as in PMID 22577139; details: read-out: K d for RPA1789 by ITC (literature); cited from earlier work
[4] = ITC, 20°C, 50 µM protein, 50 mM Tris-HCl pH 7.2 plus 100 mM NaCl

SMILES: O=C(O)c1ccc(O)cc1 [4-hydroxybenzoate]
- Quench of intrinsic tryptophan fluorescence of CouP (RPA1789) [1]: did not produce any fluorescence change
- Binding to CouP (RPA1789) ([1]; fluorescence): no evidence of binding
- Binding to TarP (RPA1782), fluorescence screen ([2]; equimolar protein and ligand): no evidence of binding

SMILES: O=C(O)/C=C/c1ccc(O)c(O)c1 [Caffeate, (E)-3-(3,4-dihydroxyphenyl)-2-propenoic acid]
- Kd [1]: 0.0024 ± 0.0008 µM
- Quench of intrinsic tryptophan fluorescence of CouP (RPA1789) [1]: 25–50%
- K d with CouP that was not urea treated, relative to refolded protein [1]: 200-1,000 fold
- Kd [2]: 0.014 ± 0.007 µM
- Quench of intrinsic tryptophan fluorescence of TarP (RPA1782) [2]: ~5%
- Kd (CouP (RPA1789)): 0.027 ± 7e-05 µM
- ΔH (binding enthalpy) (CouP (RPA1789); [4]): negligible enthalpy of binding
- n (ligand binding stoichiometry) (CouP (RPA1789); ITC, 25°C): 0.776±0.005
- ΔH (binding enthalpy) (CouP (RPA1789); ITC, 25°C): 1.78 ± 0.05 kcal/mol
- ΔHdil (heats of dilution of the ligands) (CouP (RPA1789); ITC, 25°C): -0.28 kcal/mol
- ΔS (binding entropy) (CouP (RPA1789); ITC, 25°C): 40 cal mol^−1 K^−1

SMILES: O=C(O)/C=C/c1ccccc1 [Cinnamate, (E)-3-phenyl-2-propenoic acid]
- Kd [1]: 0.088 ± 0.008 µM
- Quench of intrinsic tryptophan fluorescence of CouP (RPA1789) [1]: 25–50%
- Kd [2]: 0.05 µM and 0.033 µM
- Quench of intrinsic tryptophan fluorescence of TarP (RPA1782) [2]: ~5%
- n (ligand binding stoichiometry) (CouP (RPA1789); ITC, 20°C): 0.757±0.003
- ΔHdil (heats of dilution of the ligands) (CouP (RPA1789); ITC, 20°C): -0.43 kcal/mol
- ΔS (binding entropy) (CouP (RPA1789); ITC, 20°C): 56 cal mol^−1 K^−1
- ΔH (binding enthalpy) (CouP (RPA1789); [4]): 7.45 ± 0.08 kcal/mol
- ΔHbind (less favourable enthalpy of binding) (CouP (RPA1789); ITC, CouP, compared with ligands bearing the 4-OH group): > 4 kcal/mol
- Binding to CouP that was not urea treated [3]: no evidence for cinnamate binding

SMILES: O=C(O)/C=C/c1ccc(O)cc1 [Coumarate, (E)-3-(4-hydroxyphenyl)-2-propenoic acid]
- Kd [1]: 0.0026 ± 9e-05 µM
- Quench of intrinsic tryptophan fluorescence of CouP (RPA1789) [1]: ~30% and 25–50%
- K d with CouP that was not urea treated, relative to refolded protein [1]: 200-1,000 fold
- Kd [2]: 0.008 ± 0.005 µM
- Quench of intrinsic tryptophan fluorescence of TarP (RPA1782) [2]: ~5%
- n (ligand binding stoichiometry) (CouP (RPA1789); ITC, 20°C): 0.993±0.003
- ΔHdil (heats of dilution of the ligands) (CouP (RPA1789); ITC, 20°C): -0.26 kcal/mol
- ΔS (binding entropy) (CouP (RPA1789); ITC, 20°C): 46 cal mol^−1 K^−1
- ΔH (binding enthalpy) (CouP (RPA1789); [4]): 3.23 ± 0.03 kcal/mol
- Kd (RPA1789): 8.6 µM

SMILES: COc1cc(/C=C/C(=O)O)ccc1O [Ferulate, (E)-3-(4-hydroxy-3-methoxyphenyl)-2-propenoic acid]
- Kd [1]: 0.015 ± 0.006 µM
- Quench of intrinsic tryptophan fluorescence of CouP (RPA1789) [1]: 25–50%
- K d with CouP that was not urea treated, relative to refolded protein [1]: 200-1,000 fold
- Kd [2]: 0.015 ± 0.003 µM
- Quench of intrinsic tryptophan fluorescence of TarP (RPA1782) [2]: ~5%
- n (ligand binding stoichiometry) (CouP (RPA1789); ITC, 20°C): 0.803±0.002
- ΔHdil (heats of dilution of the ligands) (CouP (RPA1789); ITC, 20°C): -0.24 kcal/mol
- ΔS (binding entropy) (CouP (RPA1789); ITC, 20°C): 43 cal mol^−1 K^−1
- ΔH (binding enthalpy) (CouP (RPA1789); [4]): 3.18 ± 0.03 kcal/mol

SMILES: COc1cc(C=CC(=O)O)cc(OC)c1O [sinapate, 3-(4-hydroxy-3,5-dimethoxyphenyl)-2-propenoic acid]
- Quench of intrinsic tryptophan fluorescence of CouP (RPA1789) [1]: ~5%
